“Also recorded” adds a separate entry of the source.
How the values were obtained:
[1] = system: glycolipid biosynthesis in HL-60 cells; test: Inhibition of glycolipid biosynthesis in HL-60 cells, [14C]-palmitic acid labelling, 1D-TLC;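 for all read-outs here: cells cultured 24 h with or without test compound, total cellular lipids resolved by one-dimensional TLC and detected by autoradiography, inhibition shown as missing Glc-Cer and gangliosides versus untreated cells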; format: cell-based, human; details: for effect of N-alkyl chain length on inhibition of glycolipid biosynthesis (loss of detectable Glc-Cer): HL-60, 0.5 mM, 1D-TLC (FIG. 4); for inhibition of glycolipid biosynthesis: HL-60, 500 μM, 1D-TLC (FIG. 1)
[2] = system: UDP-glucose:N-acylsphingosine glucosyltransferase; test: Inhibition of UDP-glucose:N-acylsphingosine glucosyltransferase; format: biochemical, rat brain, mouse macrophage (WEHI-3B); details: for IC50: highest concentrations tested, read-out: IC50 (not inhibitory)
WEHI-3B cell lysosomes = test: Transmission electron microscopy of lysosomes of CBE treated WEHI-3B cells; format: cell-based, murine; details: transmission electron microscopy (FIG. 6)
[3] = system: Glc-Cer accumulation in WEHI-3B murine macrophage cells; test: In vitro Gaucher's disease model: CBE induced glycolipid storage in WEHI-3B cells, 1D-TLC; format: cell-based; details: CBE
Method: In this model, the murine macrophage cell line WEHI-3B was cultured in the presence of an irreversible glucocerebrosidase inhibitor, conduritol β epoxide (CBE), to mimic the inherited disorder found in Gaucher's disease. WEHI-3B cells are well-known, widely distributed and readily available murine macrophage cells. They are described in Cancer Res. 37, 546-550 (1977), and are readily available from the American Type Culture Collection, Rockville, Md, under accession number ATCC TIB 68. The compounds of the invention prevent lysosomal glycolipid storage which is useful for the management of Gaucher's disease and other glycolipid storage disorders as illustrated hereinafter in Table 3. Gaucher's disease is an autosomal recessive disorder characterized by an impaired ability to degrade glucocerebroside (glucosyl ceramide, Glc-Cer) due to mutations in the gene encoding β-glucocerebrosidase (β-D-glucosyl-N-acylsphingosine glucohydrolase, EC 3.2.1.45). This defect results in the lysosomal accumulation of Glc-Cer in cells of the macrophage-monocyte system [Barranger and Ginns, in The Metabolic Basis of Inherited Diseases, ed. Scriver et al., pp. 1677-1698, McGraw-Hill, New York, (1989); Beutler, Science 256, 794-799 (1992)]. By slowing the rate of glycolipid synthesis, the impaired catabolism of Glc-Cer can be offset, thereby leading to the maintenance of a balanced level of Glc-Cer.
FIGS. 5 and 6 show the analysis of NB-DNJ and NB-DGJ in an in vitro Gaucher's disease model.
The in vitro Gaucher's disease model was prepared as follows: WEHI-3B cells (American Type Culture Collection, Rockville, Md., U.S.A.) were maintained in logarithmic phase growth for 14 days in RPMI-1640 medium, 10% FCS, in the presence or absence of 50 μM conduritol β epoxide (CBE, Toronto Research Chemicals, Downsview, Canada) with or without NB-DNJ or NB-DGJ. Cells were passaged every 3 days and compound concentrations maintained throughout. Equal cell numbers (5×10^6) were harvested, extracted in 1 ml chloroform: methanol (2:1 v/v) overnight at 4° C., the extracts centrifuged, the chloroform:methanol extract retained and the pellet re-extracted as above for 2 hr. at room temperature. Pooled extracts were dried under nitrogen, re-dissolved in 10 μl chloroform:methanol (2:1 v/v) and separated by 1D-TLC in chloroform:methanol:water […]. Plates were air dried and visualized using α-naphthol (1% w/v in methanol) followed by 50% (v/v) sulphuric acid.

Structure (SMILES)	effect of N-alkyl chain length on inhibition of glycolipid biosynthesis (loss of detectable Glc-Cer) [1]	also measured
OC[C@H]1NC[C@H](O)[C@@H](O)[C@H]1O [DGJ, Deoxygalactonojirimycin]	no effect; also recorded: inactive	inhibition of glucose transfer ([2]; highest concentration tested 5.0 mM (FIG. 8)): not inhibitory at the highest concentration tested; IC50 [2]: > 5 mM
OC[C@H]1NC[C@H](O)[C@@H](O)[C@@H]1O [DNJ, deoxynojirimycin]	no effect	inhibition of glucose transfer ([2]; highest concentration tested 6.1 mM (FIG. 8)): not inhibitory at the highest concentration tested; IC50 [2]: > 5 mM
CCCN1C[C@H](O)[C@@H](O)[C@@H](O)[C@H]1CO [N-propyl DGJ, N-propyl deoxygalactonojirimycin]	partial inhibitory activity; also recorded: partially active	–
O[C@H]1[C@H](O)[C@@H](O)[C@@H]2O[C@@H]2[C@@H]1O [CBE, conduritol β epoxide]	–	glycolipid accumulation in lysosomes (WEHI-3B cell lysosomes): glycolipid accumulation observed in the lysosomes
CCCN1C[C@H](O)[C@@H](O)[C@H](O)[C@H]1CO [N-propyl DNJ]	partial inhibitory activity	–
CN1C[C@H](O)[C@@H](O)[C@H](O)[C@H]1CO [N-methyl DNJ]	no effect	–
CCCCN1C[C@@H](O)[C@H](O)[C@H](O)[C@@H]1C [NB-DFJ]	–	inhibition of glycolipid biosynthesis [1]: without effect
CCN1C[C@H](O)[C@@H](O)[C@@H](O)[C@H]1CO [N-ethyl DGJ]	no effect; also recorded: inactive	–
CCCCN1C[C@H](NC(C)=O)[C@@H](O)[C@H](O)[C@H]1CO [NB-NAG, N-butyl 2-acetamido-1,2,5-trideoxy-1,5-imino-D-glucitol]	–	inhibition of glycolipid biosynthesis [1]: without effect
CN1C[C@H](O)[C@@H](O)[C@@H](O)[C@H]1CO [N-methyl DGJ]	no effect; also recorded: inactive	–
CCCCCCN1C[C@H](O)[C@@H](O)[C@@H](O)[C@H]1CO [N-hexyl DGJ, N-hexyl deoxygalactonojirimycin]	completely prevented glycolipid biosynthesis; also recorded: completely inhibited glycolipid biosynthesis	prevention of glycolipid storage in in vitro Gaucher's disease model (in words) [3]: offset glucoceramide accumulation
CCCCN1C[C@@H](O)[C@@H](O)[C@H](O)[C@H]1CO [NB-DMJ, N-butyl deoxymannojirimycin]	–	inhibition of glycolipid biosynthesis [1]: without effect
CCCCCCN1C[C@H](O)[C@@H](O)[C@H](O)[C@H]1CO [N-hexyl DNJ]	completely inhibited glycolipid biosynthesis	–

— US6291657A (priority 1993, dated 2001)
